Reference: patent US20150111896A1, “HEMATOPOIETIC PROTECTION AGAINST CHEMOTHERAPEUTIC COMPOUNDS USING SELECTIVE CYCLIN-DEPENDENT KINASE 4/6 INHIBITORS” (The University of North Carolina at Chapel Hill, priority 2008, published 2015)
“Also recorded” adds a separate entry of the source.

Tests used:
[1] = tested on: telomerized human diploid fibroblast (tHDF) cells (HS68); experiment: Cell cycle analysis (BrdU and propidium iodide, flow cytometry); assay type: cell-based; conditions: HS68 (CDK4/6-dependent), 24 hours treatment
Protocol: (§1) Cells were cultured in DMEM+10% FBS.
(§2) Cell cycle analysis: Cell cycle analysis was performed using BrdU and propidium iodide (both from BD Biosciences Pharmigen, San Jose, Calif., United States of America) following the manufacturer's protocol. Cells were treated for 24 hours with a test compound at a desired dose prior to 15 minutes BrdU pulse, cell harvesting, fixation, staining, and analysis by flow cytometry.
(§3) Histograms of dose-response curves of PD332991 and 2BrIC in HS68, WM2664 and A2058 cells were analyzed using Mod-Fit™ software from Verity Software House (Topsham, Me., United States of America).

[2] = tested on: human RB-null melanoma cells (A2058); experiment: as above; assay type: cell-based; conditions: A2058 (RB-null, CDK4/6-independent), 24 hours treatment
Protocol: as §1, §2, §3

[3] = tested on: human melanoma cells lacking INK4a/ARF (WM2664); experiment: as above; assay type: cell-based; conditions: WM2664 (CDK4/6-dependent), 24 hours treatment
Protocol: as §1, §2, §3

[4] = tested on: human melanoma cells lacking INK4a/ARF (WM2664); experiment: Cell proliferation assay (WST-1 or CellTiter-Glo) after chemotherapeutic; conditions: for protection from chemotherapy-induced cytotoxicity (cell proliferation assays): WM2664 (CDK4/6-dependent), pretreatment prior to carboplatin, etoposide or doxorubicin; for protection from doxorubicin-induced cytotoxicity (cell viability, WST-1 assay) / chemoprotective effects against doxorubicin (cell viability, CellTiter-Glo): WM2664; for protection from doxorubicin-induced cytotoxicity (cell viability, WST-1 assay): absorbance at 450 nm, 7 days recovery; for chemoprotective effects against doxorubicin (cell viability, CellTiter-Glo): 16 hours pretreatment, DOX 122 nM 8 hours, viability after 7 days
Protocol: (§4) In some embodiments, cell viability is assessed by performing a assay using 2-(4-iodophenyl)-3-(4-nitrophenyl)-5-(2,4-disulfophenyl)-2H-tetrazolium monosodium salt (WST-1), such as described further hereinbelow. In the WST-1 assay, WST-1 is cleaved by a mitochondrial reductase present in viable cells to form a colored product (i.e., formazan) that can be detected by measuring absorbance at a particular wavelength (e.g., 420-480 nm). […] The CellTiter-Glo® assay (CTG assay; Promega, Madison, Wis., United States of America) measures cell viability by measuring ATP concentration in cell lysate.
(§5) Cell lines: Telomerized human diploid fibroblast (tHDF) cells (HS68) were cultured in Dulbecco's Modified Eagle Medium (DMEM) +10% fetal bovine serum (FBS) with any additional compounds. The same conditions were used for A2058 and WM2664, human melanoma cell lines with known RB-pathway mutations: A2058 is RB-null, whereas WM2664 lacks INK4a/ARF. Thus, A2058 cells are CDK4/6-independent, while WM2664 cells are CDK4/6-dependent. Cells were cultured in DMEM+10% FBS.
(§6) Cell proliferation assays: Cell proliferation assays were performed by seeding 1×10^3 cells per well in a 96-well tissue culture plate in 100 μL of growth medium. Cells were treated as indicated with compound from Table 1 and doxorubicin, etoposide or carboplatin. Following treatment, cells were allowed to recover for 7 days in normal growth medium. At the end of the recovery period, cell number was quantified using the VVST-1 cell proliferation assay (TaKaRa Bio USA, Madison, Wis., United States of America) or the CellTiter-Glo® assay (CTG; Promega, Madison, Wis., United States of America). Data is presented as absorbance at 450 nm for the WST assays or Relative Light Units (RLU) for the CTG assays.

[5] = tested on: telomerized human diploid fibroblast (tHDF) cells (HS68); experiment: as above; conditions: for protection from chemotherapy-induced cytotoxicity (cell proliferation assays): HS68 (CDK4/6-dependent), pretreatment prior to carboplatin, etoposide or doxorubicin; for protection from doxorubicin-induced cytotoxicity (cell viability, WST-1 assay) / chemoprotective effects against doxorubicin (cell viability, CellTiter-Glo): HS68; for protection from doxorubicin-induced cytotoxicity (cell viability, WST-1 assay): absorbance at 450 nm, 7 days recovery; for chemoprotective effects against doxorubicin (cell viability, CellTiter-Glo): 16 hours pretreatment, DOX 370 nM 8 hours, viability after 7 days
Protocol: as §4, §5, §6

[6] = tested on: human RB-null melanoma cells (A2058); experiment: as above; conditions: for protection from chemotherapy-induced cytotoxicity (cell proliferation assays): A2058 (CDK4/6-independent), pretreatment prior to carboplatin, etoposide or doxorubicin; for chemoprotective effects against doxorubicin (cell viability, CellTiter-Glo): A2058, 16 hours pretreatment, DOX 370 nM 8 hours, viability after 7 days
Protocol: as §4, §5, §6

SMILES | cell cycle effect [1] | cell cycle effect [2] | cell cycle effect [3] | protection from chemotherapy-induced cytotoxicity (cell proliferation assays) [4] | protection from doxorubicin-induced cytotoxicity (cell viability, WST-1 assay) [4] | protection from chemotherapy-induced cytotoxicity (cell proliferation assays) [5] | protection from doxorubicin-induced cytotoxicity (cell viability, WST-1 assay) [5] | chemoprotective effects against doxorubicin (cell viability, CellTiter-Glo) [4] | chemoprotective effects against doxorubicin (cell viability, CellTiter-Glo) [5] | protection from chemotherapy-induced cytotoxicity (cell proliferation assays) [6] | chemoprotective effects against doxorubicin (cell viability, CellTiter-Glo) [6]
CN1CCN(Cc2ccc(Nc3ncc4cnn(C5CCCCC5)c4n3)cc2)CC1 [Compound 9] | did not induce a clean G1 arrest | did not induce a clean G1 arrest | did not induce a clean G1 arrest | failed to protect | inability | failed to protect | inability |  |  |  | 
O=c1c(-c2ccc(O)cc2)coc2cc(O)cc(O)c12 [Genistein] | did not induce a clean G1 arrest | did not induce a clean G1 arrest | did not induce a clean G1 arrest | failed to protect |  | failed to protect |  | absence of chemoprotective effects | absence of chemoprotective effects | failed to protect | absence of chemoprotective effects
COc1ccc(F)c(F)c1C(=O)c1cnc(NC2CCN(S(C)(=O)=O)CC2)nc1N [Compound 7] | did not induce a clean G1 arrest; also recorded: does not induce G1 arrest | did not induce a clean G1 arrest | did not induce a clean G1 arrest; also recorded: does not induce G1 arrest | failed to protect |  | failed to protect |  | absence of chemoprotective effects | absence of chemoprotective effects | failed to protect | absence of chemoprotective effects
CN1CCN(C(=O)c2ccc(Nc3ncc4cnn(C5CCCCC5)c4n3)cc2)CC1 [Compound 11] | did not induce a clean G1 arrest | did not induce a clean G1 arrest | did not induce a clean G1 arrest | failed to protect | inability | failed to protect | inability |  |  |  | 
CN1CC[C@H](c2c(O)cc(O)c3c(=O)cc(-c4ccccc4Cl)oc23)[C@H](O)C1 [flavopiridol] | did not induce a clean G1 arrest; also recorded: does not induce G1 arrest | did not induce a clean G1 arrest | did not induce a clean G1 arrest; also recorded: does not induce G1 arrest | failed to protect |  | failed to protect |  | absence of chemoprotective effects | absence of chemoprotective effects | failed to protect | absence of chemoprotective effects
CN1CCN(c2ccc(Nc3ncc4cnn(C5CCCCC5)c4n3)cc2)CC1 [Compound 8] | did not induce a clean G1 arrest | did not induce a clean G1 arrest | did not induce a clean G1 arrest | failed to protect | inability | failed to protect | inability |  |  |  | 
